# Results taken from patent US9063122B2, “Biomodulators for treatment or prevention of disease” (priority 2008, dated 2015).
# Key:
# [1] = test system: murine colonic tumor, colon 26; experiment: Treatment of colon 26 tumors in mice; assay type: in vivo, CDF1 mice; settings: 1 mg in 1 ml on days 7, 11 and 15, under the skin of the back and into tail vein; palpation
# Method: Treatment of tumors in mice. A pharmaceutical composition of biomodulator 3-indolyl-acetic acid, or 6-furfurylaminopurine are prepared at 10 mg in 10 ml of physiological saline. 10 mg of a murine colonic tumor, colon 26, is inoculated under the skin of the back of CDF1 mice (day 0). After one week, the tumor is measured to calculate the volume of the tumor and the mice are classified into several groups (each group: n=5). On days 7, 11 and 15, the tumor-inoculated mice are bolusly injected under the skin of their backs and into their tail veins with 1 mg of the biomodulator in a volume of 1 ml. Control and comparative groups of mice are similarly injected with saline. Complete regression of the colonic tumor is determined by palpation. Subjects in which the tumor […] by palpation on the 60th day are deemed to have their tumors cured completely.
# [2] = test system: ten different cancer cell lines; experiment: Cellular ATP level (ViaLight) assay, panel of cancer cell lines; assay type: cell-based; settings: various concentrations
# Description: (§1) Selected cell lines include C33A cervical carcinoma cells, Mrc-5 normal lung fibroblasts, PC-3 human prostatic carcinoma cell line, OVCAR-3 human ovarian carcinoma cell line, H460 non-small cell lung cancer cell line, A549 human lung carcinoma cell line, H1299 human non-small cell lung cancer cells, MCF-7 human breast cancer cell line, SW-480 human adenocarcinoma cell line, B16-F1 mouse melanoma cell line (American Type Culture Collection, Manassas, Va., USA), HMEC normal mammary epithelial cells (Clonetics San Diego, Calif., USA) and ADR-RES human breast cancer cell line (NCI, MD, USA), which are cultured in the media recommended by the American Type Culture Collection. The cell lines are plated in 96-well microliter plates (PerkinElmer Life Sciences Inc., Boston, Mass., USA) at a confluency that allows them to reach confluence after 4 days of growth. One day after plating, the cells are treated with various concentrations of biomodulator. Stock solutions of the biomodulator are prepared in dimethyl sulfoxide (Sigma-Aldrich Inc., St. Louis, Mo., USA), diluted in the recommended media and then added to the cells. The total dimethyl sulfoxide on the cells is 1%. After 3 days of incubation the ATP levels in the cells are quantified using a luminescent ViaLight detection system (Bio-Whittaker, MD, USA). […]
# [3] = test system: C33A cervical carcinoma cells; experiment: Cellular ATP level (ViaLight) cell viability assay; assay type: cell-based; settings: 0.5 μM, 72 hours after treatment
# Description: as §1
# [4] = test system: H1299 human non-small cell lung cancer cells; experiment: Cellular ATP level (ViaLight) cell viability assay; assay type: cell-based; settings: 0.5 μM, 72 hours after treatment
# Description: as §1
# [5] = test system: fibroblasts in human skin; settings: cited from earlier work
# [6] = test system: human myeloid leukaemia cells; settings: cited from earlier work
# white cells = settings: in vitro; cited from earlier work
# C2C12 muscle stem cells [7] = experiment: WST-1 cell growth assay; assay type: cell-based; settings: day 3; 0.001 μg/ml and 0.0001 μg/ml
# Method: (§2) Reagents: The auxin 2,4-Dichlorophenoxyacetic acid, and auxin antagonist, TIBA (2,3,5-triiodobenzoic acid), are purchased from Sigma-Aldrich (St. Louis, Mo.), After dissolving, these compounds are stored at −20° C. Concentrations used are 0.0001, 0.001, 0.01 and 0.1 μg/ml.
# Cell growth parameters are measured by WST assay. Cell proliferation reagent WST-1 is purchased from Roche (NJ). Assays are performed according to the manufacturer's protocol. Cells are seeded on a 96-well cell culture plate (1.5×10^3 cells/well), and absorbance (A450-A690) is measured at day 3.
# C2C12 muscle stem cells [8] = experiment: C2C12 muscle stem cell culture with immunocytochemistry (Pax7, MyoD, Ki67, MHC); assay type: cell-based; settings: for number of stem cells in culture: FIG. 2, TIBA at low to mid-level concentrations (range tested 0.0001-0.1 μg/ml)
# Method: as §2
# C2C12 muscle stem cells are used. Cells from low-passage frozen stocks are seeded in a 10 cm culture dish. After reaching 60% confluence, cells are passaged into an 8-well chamber slide (BD Biosciences, CA, USA). C2C12 cells are seeded on an 8-well chamber slide (3.5×10^3 cells/well). On day 3 after exposure to biomodulator or control, cells are fixed for immunocytochemistry (ICC) of MyoD and Ki67. For MHC and Pax7 immunostaining, cell culture media is replaced from the growth media (GM) to the differentiation media (DM) to induce terminal differentiation at day 5, and then cells are fixed for ICC of MHC and Pax7 at day 8. Media change and compound administration are performed daily.
# For ICC, cells are fixed with 4% paraformaldehyde (PFA)/PBS for 20 min at ambient temperature. After being washed with PBS, cells are soaked in 0.1% Triton-X/PBS for 15 min at RT and blocked with 5% normal goat serum (NGS)/PBS to inhibit non-specific binding of antibodies for 60 min at ambient temperature. Primary antibodies are applied, and cells are incubated overnight at 4° C. The primary antibodies are anti-Pax7 mouse monoclonal (Developmental Studies Hybridoma Bank (DSHB), IA), anti-MyoD mouse monoclonal (DSHB), anti-Myosin Heavy Chain mouse monoclonal (MF20; DSHB) and anti-Ki67 rabbit polyclonal (Thermo Fisher Scientific, CA) antibodies.
# [9] = test system: cardiac cells (myoblasts); settings: cited from earlier work
smiles,measurement,setting,value
O=C(O)Cc1c[nH]c2ccccc12 [3-indolyl-acetic acid],tumor regression,[1],produces tumor regression
same,decrease of cellular ATP levels compared with HMEC normal mammary epithelial cell line,[2],greater efficacy in decreasing cellular ATP levels
same,lowering of ATP levels compared with normal cell lines HMEC and MRC-5,[3],significantly more effective at lowering ATP levels
same,lowering of ATP levels compared with normal cell lines HMEC and MRC-5,[4],significantly more effective at lowering ATP levels
c1coc(CNc2ncnc3nc[nH]c23)c1 [6-furfurylaminopurine],tumor regression,[1],produces tumor regression
same,life span of fibroblasts,[5],prolongs the life span of fibroblasts
same,granulocytic differentiation and apoptosis,[6],induction of granulocytic differentiation
"CC1=CC(=O)CC(C)(C)[C@@]1(O)/C=C/C(C)=C\C(=O)O [ABA, Abscisic acid]",phagocytosis in white cells,white cells,stimulation of phagocytosis
"O=C(O)c1cc(I)cc(I)c1I [TIBA, 2,3,5-triiodobenzoic acid]","cell number, WST-1 cell growth assay",C2C12 muscle stem cells [7],increases cell number
same,number of stem cells in culture,C2C12 muscle stem cells [8],reduces the number of stem cells
same,myotube formation,"C2C12 muscle stem cells [8]; FIG. 6, increased concentrations of TIBA",increased myotube formation
same,number of MyoD positive myoblasts,C2C12 muscle stem cells [8]; day 3,dose-dependent decrease
"O=C(O)COc1ccc(Cl)cc1Cl [auxin, 2,4-Dichlorophenoxyacetic acid]",number of stem cells in culture,C2C12 muscle stem cells [8],opposite that of TIBA
same,global cell proliferation,"C2C12 muscle stem cells [8]; FIG. 4, high Auxin concentrations",reduced
same,myotube formation,"C2C12 muscle stem cells [8]; FIG. 5, low auxin concentration",increase
same,myotube formation,"C2C12 muscle stem cells [8]; FIG. 5, mid to high auxin concentration (0.01 μg/ml)",reduced
c1nc2nc(Nc3ccc(N4CCOCC4)cc3)nc(NC3CCCCC3)c2[nH]1 [reversine],de-differentiation of cells,[9],de-differentiate into osteoblasts and adipocytes
